Measured values as given in the supplement of paper PMC10307832.

Experiments:
Test in all cases: relative viability (nuclei count vs DMSO), 5 days (fraction); higher = more cells survive
[1] = compound: COc1cccc2c1C(=O)c1c(O)c3c(c(O)c1C2=O)C[C@@](O)(C(=O)CO)C[C@@H]3O[C@H]1C[C@H](N)[C@H](O)[C@H](C)O1 [Doxorubicin] + COc1cccc2cc(-c3nc([C@H]4CC[C@H](C(=O)O)CC4)n4ncnc(N)c34)[nH]c12 [OSI-027] (partner 0.5 µM)
Procedure, shortened: (§1)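 Lung cancer cell lines in 1536-well plates got either a single drug or a fixed anchor-drug dose together with five library-drug doses (not always all listed) in √10 steps, by pin tool, on the day after seeding. Nuclei were counted after 5 days, and relative viability is the treated-to-vehicle ratio of nuclei counts. Values are medians of duplicate plates.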

[2] = compound: COc1cccc2c1C(=O)c1c(O)c3c(c(O)c1C2=O)C[C@@](O)(C(=O)CO)C[C@@H]3O[C@H]1C[C@H](N)[C@H](O)[C@H](C)O1 [Doxorubicin] + C[C@]1(O)C[C@@H](c2nc(-c3ccc4ccc(-c5ccccc5)nc4c3)c3c(N)nccn32)C1 [Linsitinib] (partner 1 µM)
Procedure, shortened: as §1

[3] = compound: COc1cccc2c1C(=O)c1c(O)c3c(c(O)c1C2=O)C[C@@](O)(C(=O)CO)C[C@@H]3O[C@H]1C[C@H](N)[C@H](O)[C@H](C)O1 [Doxorubicin] + Cc1nc(NC(=O)N2CCC[C@H]2C(N)=O)sc1-c1ccnc(C(C)(C)C(F)(F)F)c1 [Alpelisib] (partner 2 µM)
Procedure, shortened: as §1

[4] = compound: COc1cccc2c1C(=O)c1c(O)c3c(c(O)c1C2=O)C[C@@](O)(C(=O)CO)C[C@@H]3O[C@H]1C[C@H](N)[C@H](O)[C@H](C)O1 [Doxorubicin] + O=C(CCCCCCC(=O)Nc1ccccc1)NO [Vorinostat] (partner 1 µM)
Procedure, shortened: as §1

Cell Line	relative viability ([1]; first compound 0.001 µM)	relative viability ([1]; first compound 0.003162 µM)	relative viability ([1]; first compound 0.01 µM)	relative viability ([1]; first compound 0.03162 µM)	relative viability ([1]; first compound 0.1 µM)	relative viability ([2]; first compound 0.001 µM)	relative viability ([2]; first compound 0.003162 µM)	relative viability ([2]; first compound 0.01 µM)	relative viability ([2]; first compound 0.03162 µM)	relative viability ([2]; first compound 0.1 µM)	relative viability ([3]; first compound 0.001 µM)	relative viability ([3]; first compound 0.003162 µM)	relative viability ([3]; first compound 0.01 µM)	relative viability ([3]; first compound 0.03162 µM)	relative viability ([3]; first compound 0.1 µM)	relative viability ([4]; first compound 0.001 µM)	relative viability ([4]; first compound 0.003162 µM)	relative viability ([4]; first compound 0.01 µM)	relative viability ([4]; first compound 0.03162 µM)	relative viability ([4]; first compound 0.1 µM)
NCI-H1944	0.317	0.46	0.473	0.358	0.366	1.17	1.23	1.34	1.16	1.3	0.8	0.836	0.851	0.83	0.885	0.554	0.632	0.541	0.416	0.497
NCI-H661	0.829	0.639	0.625	0.46	0.291	0.641	0.636	0.551	0.484	0.547	0.589	0.702	0.511	0.592	0.469	0.737	0.82	0.695	0.577	0.495
NCI-H650	0.574	0.544	0.59	0.522	0.495	1.01	0.753	0.949	0.709	0.411	1.31	1.13	1.06	0.938	0.822	0.553	0.505	0.422	0.355	0.432
EKVX	0.727	0.66	0.702	0.639	0.695	0.996	0.922	0.957	1.11	0.879	0.968	0.971	0.797	0.803	0.861	0.764	0.889	0.762	0.724	0.794
SK-MES-1	0.637	0.719	0.516	0.174	0.129	0.952	1.07	1.07	1.05	0.936	0.956	0.877	0.819	0.785	0.573	1.04	1.15	0.996	0.251	0.233
EPLC-272H	0.29	0.275	0.255	0.272	0.28	0.936	1.45	1.4	1.18	1.13	0.898	1.04	0.913	0.902	1.02	0.364	0.501	0.381	0.345	0.345
NCI-H1395	0.633	0.714	0.685	0.603	0.559	1.03	1.09	1.02	1.11	0.92	0.964	0.985	0.98	0.851	0.791	0.551	0.688	0.825	0.572	0.493
NCI-H2228	0.35	0.62	0.414	0.274	0.209	0.825	0.615	0.634	0.178	0.311	0.724	0.822	0.647	0.393	0.198	0.759	0.43	0.46	0.374	0.518
NCI-H2023	0.347	0.363	0.314	0.142	0.0903	0.642	0.62	0.549	0.279	0.102	0.595	0.617	0.524	0.203	0.0842	0.463	0.657	0.272	0.0749	0.109
NCI-H322M	0.414	0.493	0.566	0.556	0.378	0.986	0.913	0.982	0.974	0.952	0.916	0.77	0.924	0.769	0.777	1.01	0.836	0.85	0.769	0.57
HCC-827	0.725	0.714	0.796	0.671	0.754	0.922	0.965	0.969	0.921	0.921	1.04	1.15	0.968	1.02	1.05	0.559	0.854	0.856	0.774	0.641
LU99A	0.353	0.338	0.302	0.273	0.315	0.521	0.645	0.526	0.456	0.575	0.489	0.648	0.549	0.505	0.51	0.518	0.474	0.442	0.409	0.519
LC-2-ad	0.629	0.691	0.587	0.386	0.292	0.879	0.803	0.902	0.763	0.791	0.892	0.87	0.924	0.859	0.724	0.699	0.714	0.624	0.637	0.664
NCI-H460	0.614	0.41	0.482	0.0685	0.0255	0.714	0.687	0.385	0.0347	0.0076	0.584	0.386	0.288	0.024	0.0112	0.654	0.639	0.492	0.063	0.0329
HOP-62	0.832	0.759	0.798	0.719	0.767	0.954	1.04	1.11	1.17	1.04	0.873	1.26	1.15	0.879	0.934	0.515	0.605	0.599	0.538	0.572
